Holding throughout (test): relative viability (nuclei count vs DMSO), 5 days (fraction); higher = more cells survive
Compound in the assay “AZ505 + Linsitinib”: C1CCC(CC1)N(CCNCCC2=C3C(=C(C=C2)O)NC(=O)CO3)C(=O)CCNCCC4=CC(=C(C=C4)Cl)Cl [AZ505] + C[C@]1(O)C[C@@H](c2nc(-c3ccc4ccc(-c5ccccc5)nc4c3)c3c(N)nccn32)C1 [Linsitinib] (partner 1 µM)
The procedure, abridged: (§1)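 Values are medians from duplicate plates. Each reflects relative viability, defined as the nuclei count of treated wells over that of vehicle wells. Lung cancer cell lines in 1536-well plates were pin-tool dosed one day after seeding with one drug alone or with a fixed anchor-drug dose plus five library-drug doses (not always all listed) in √10 steps, then fixed, stained and imaged at 4× after 5 days.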

Compound in the assay “AZ505 + Olaparib”: C1CCC(CC1)N(CCNCCC2=C3C(=C(C=C2)O)NC(=O)CO3)C(=O)CCNCCC4=CC(=C(C=C4)Cl)Cl [AZ505] + O=C(c1cc(Cc2n[nH]c(=O)c3ccccc23)ccc1F)N1CCN(C(=O)C2CC2)CC1 [Olaparib] (partner 8 µM)
A digest of the protocol: as §1

Compound in the assay “Dactolisib + Trametinib”: Cn1c(=O)n(-c2ccc(C(C)(C)C#N)cc2)c2c3cc(-c4cnc5ccccc5c4)ccc3ncc21 [Dactolisib] + CC(=O)Nc1cccc(-n2c(=O)n(C3CC3)c(=O)c3c(Nc4ccc(I)cc4F)n(C)c(=O)c(C)c32)c1 [Trametinib] (partner 0.02 µM)
The procedure, abridged: as §1

Compound in the assay “Dactolisib + Phenformin”: Cn1c(=O)n(-c2ccc(C(C)(C)C#N)cc2)c2c3cc(-c4cnc5ccccc5c4)ccc3ncc21 [Dactolisib] + N=C(N)NC(=N)NCCc1ccccc1 [Phenformin] (partner 250 µM)
A digest of the protocol:
as §1

UMC-11: the relative viability worked out at 0.971 in the assay with AZ505 + Linsitinib (first compound 0.08 µM); 1.06 with AZ505 + Linsitinib (first compound 0.253 µM); 1.01 in the assay with AZ505 + Linsitinib (first compound 0.8 µM); 0.951 with AZ505 + Linsitinib (first compound 2.53 µM); 1.05 with AZ505 + Linsitinib (first compound 8 µM); 0.366 in the assay with AZ505 + Olaparib (first compound 0.08 µM). The relative viability with AZ505 + Olaparib (first compound 0.253 µM) amounted to 0.372; with AZ505 + Olaparib (first compound 0.8 µM), 0.363; with AZ505 + Olaparib (first compound 2.53 µM) it was 0.383; with AZ505 + Olaparib (first compound 8 µM), 0.381; in the assay with Dactolisib + Trametinib (first compound 0.002 µM) it was 0.642; in the assay with Dactolisib + Trametinib (first compound 0.006325 µM) it was 0.637. Further, the relative viability in the assay with Dactolisib + Trametinib (first compound 0.02 µM) turned out to be 0.578; in the assay with Dactolisib + Trametinib (first compound 0.06325 µM), 0.282; in the assay with Dactolisib + Trametinib (first compound 0.2 µM), 0.2; with Dactolisib + Phenformin (first compound 0.002 µM), 0.326; with Dactolisib + Phenformin (first compound 0.006325 µM), 0.326; with Dactolisib + Phenformin (first compound 0.02 µM), 0.315. The relative viability was found to be 0.218 with Dactolisib + Phenformin (first compound 0.06325 µM) and 0.22 with Dactolisib + Phenformin (first compound 0.2 µM).

These data come from the supplement of paper PMC10307832.
